Results reported in patent US20250051391A1, “PEPTIDE INHIBITORS AND METHODS FOR INHIBITING PROTEIN AGGREGATION IN NEURONS AND NEURODEGENERATIVE DISEASES” (THE GOVERNING COUNCIL OF THE UNIVERSITY OF TORONTO, priority 2021, published 2025).
Ends that are not written are not given here.

Tested on: rat substantia nigra dopaminergic neurons
Experiment: AAV V1S/SV2 a-syn oligomer rat model
Format: in vivo
Protocol: Adult female Sprague-Dawley rats (250-280 g; Envigo) were pair-housed in cages with wood bedding and had access to food and water ad libitum. The animal colony was maintained in a regular 12-h light/dark cycle. All procedures were approved by the University Health Network Animal Care Committee in accordance with guidelines and regulations set by the Canadian Council on Animal Care.
Animals were secured in a stereotactic frame under isoflurane/oxygen anaesthesia and ketoprofen (5 mg/kg) analgesia. The surgical site was shaved and sterilized with iodine/betadine prior to making a 2 cm incision along the midline. The scalp was exposed and a unilateral injection targeting the SN was performed at coordinates AP−5.2 mm, ML−2 mm and DV−7.4 mm with respect to the bregma as a point of reference. For each animal, a total volume of 2 μl of virus was injected at a rate of 0.5 μl/min using a microinjection pump and 10 μl Hamilton syringe with a 26-gauge needle. For A53T groups, 1 μl (low dose) or 1.34 μl (high dose) of AAV1/2-A53T a-syn (5.1×10^12 genomic particles/ml), 0.14 μl of AAV1/2-Pdpep1.3-GFP or scramble1.3-GFP (5.1×10^12 genomic particles/ml) and 0.86 μl or 0.52 μl of sterile PBS was injected; for EV groups, 1 μl (low dose) or 1.34 μl (high dose) of AAV1/2-EV (5.1×10^12 genomic particles/ml) replaced AAV1/2-A53T. For V1S+SV2 groups, 0.58 μl of AAV1/2-V1S (1.1×10^12 genomic particles/ml), 0.58 μl of AAV1/2-SV2 (1.1×10^12 genomic particles/ml), 0.14 μl of AAV1/2-Pdpep1.3-RFP or scramble1.3-RFP (5.1×10^12 genomic particles/ml) and 0.7 μl of sterile PBS was injected; for the YFP groups, 1.16 μl of AAV1/2-YFP (1.1×10^12 genomic particles/ml), 0.14 μl of AAV1/2-Pdpep1.3-RFP or scramble1.3-RFP (5.1×10^12 genomic particles/ml) and 0.7 μl of sterile PBS was injected. At the end of virus injection, the needle remained in place for 5 minutes before gradual removal.
Animals were uthanized by transcardial perfusion with heparinised saline under isoflurane/oxygen anaesthesia. Brains were then removed and the ventral part, including the ventral striatum, was snap frozen in liquid dry ice-cooled isopentane. […]
Immunofluorescence staining for a-syn, tyrosine hydroxylase and LAMP1 was performed by washing free-floating sections with PBS-T (0.2% Triton X-100) three times for 10 min each at room temperature. […] Sections were then mounted onto glass slides and allowed to dry and then fluorescence mounting medium (DAKO) was applied followed by cover slips.
Confocal images of immunofluorescent staining were acquired with a Zeiss LSM880 confocal microscope equipped with 405, 488, 555, and 639 nm laser lines. All images were taken within the linear range at constant gain and pinhole settings at optimal resolution settings determined by the software. […]

In the case of DEEIERQLKALG [PDpep1.3], the “surviving dopaminergic neurons in the SN and terminals in the striatum (TH)” value (6 weeks post-injection) is reported as “increase in surviving dopaminergic neurons”, the “total a-syn positive area in the SN” value (6 weeks post-injection) is reported as “decrease” and the “a-syn oligomer levels measured by YFP positive area in SN and striatum” value (6 weeks post-injection, vs Scramble1.3) is reported as “significant reduction”. For the same sequence, the “YFP mean fluorescence intensity in SN cells positive for TH and RFP” value (rats, V1S/SV2, 6 weeks post-injection, AAV-expressed RFP peptide) was 0.063±0.0167 RFU.
